molecular target: T1, recombinant MtbUGM (Mycobacterium tuberculosis, UniProt P9WIQ1); assay: biochemical; settings: carboxylic acid replacements (R3)
T1 construct: made in house
T1 sequence (P9WIQ1 whole entry): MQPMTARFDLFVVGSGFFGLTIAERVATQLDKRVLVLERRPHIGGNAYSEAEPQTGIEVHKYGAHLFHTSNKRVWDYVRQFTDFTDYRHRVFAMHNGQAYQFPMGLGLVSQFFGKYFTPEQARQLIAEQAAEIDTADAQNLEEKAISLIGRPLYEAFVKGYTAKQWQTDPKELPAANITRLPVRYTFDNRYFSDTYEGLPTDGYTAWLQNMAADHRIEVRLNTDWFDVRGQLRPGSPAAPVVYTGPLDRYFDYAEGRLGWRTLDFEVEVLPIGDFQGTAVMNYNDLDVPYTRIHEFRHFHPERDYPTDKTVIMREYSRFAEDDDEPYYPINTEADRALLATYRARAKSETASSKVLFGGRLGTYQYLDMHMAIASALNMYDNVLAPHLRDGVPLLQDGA

| Compound | MtbUGM inhibition (in words) |
| --- | --- |
| COC(=O)CC1Sc2nnc(Cc3ccc(Br)cc3)n2N=C1c1ccc(Cl)cc1 (stereo not shown) [Compound 14, Methyl-2-(3-(4-bromobenzyl)-6-(4-chlorophenyl)-7H-[1,2,4]triazolo[3,4-b][1,3,4]thiadiazin-7-yl)acetate] | neither the ester nor amide variants effectively inhibit MtbUGM |
| C=CCNC(=O)CC1Sc2nnc(-c3cccs3)n2N=C1c1ccc(Cl)cc1 (stereo not shown) [Compound 34, N-allyl-2-(6-(4-chlorophenyl)-3-(thiophen-2-yl)-7H-[1,2,4]triazolo[3,4-b][1,3,4]thiadiazin-7-yl)acetamide] | neither the ester nor amide variants effectively inhibit MtbUGM |
| C=CCNC(=O)CC1Sc2nnc(Cc3ccc(Br)cc3)n2N=C1c1ccc(Cl)cc1 (stereo not shown) [Compound 35, N-allyl-2-(3-(4-bromobenzyl)-6-(4-chlorophenyl)-7H-[1,2,4]triazolo[3,4-b][1,3,4]thiadiazin-7-yl)acetamide] | neither the ester nor amide variants effectively inhibit MtbUGM |
| COC(=O)CC1Sc2nnc(-c3cccs3)n2N=C1c1ccc(Cl)cc1 (stereo not shown) [Compound 32, Methyl-2-(6-(4-chlorophenyl)-3-(thiophen-2-yl)-7H-[1,2,4]triazolo[3,4-b][1,3,4]thiadiazin-7-yl)acetate] | neither the ester nor amide variants effectively inhibit MtbUGM |

— US10080757B2 (WISCONSIN ALUMNI RESEARCH FOUNDATION, priority 2016, dated 2018)
